These antisense oligonucleotides have a phosphorothioate backbone; sugars and methylation of C are not fully specified. Some results are limits rather than exact numbers.
Note: test concentration or dose not given here.

The first data set addresses E2F1. The following applies: ASO.
As to AGGTCTCTGATGCCCTCGCC, the remaining target (mRNA or protein) (fraction of control) was 0.53.

For ACCTACGGTCTCCTCAGGGC, the remaining target (mRNA or protein) (fraction of control) is 0.21.

AGAAGTCCTCCCGCACATGC displayed a remaining target (mRNA or protein) (fraction of control) of 0.51.

Consider GGCTTGCTCAGCCTCCTAGC, for which the remaining target (mRNA or protein) (fraction of control) worked out at 0.17.

As for AAGCCTCCCCACCTGGCCTG, the remaining target (mRNA or protein) (fraction of control) turned out to be 0.28.

Regarding GGACTCATGCACACACATGT, the remaining target (mRNA or protein) (fraction of control) stood at 0.16.

GCCCACTGCTCTCGGCCAGG yielded a remaining target (mRNA or protein) (fraction of control) of 0.4.

AAGTCCCGGCCACGGAATTC registered a remaining target (mRNA or protein) (fraction of control) of 0.87.

In turn, GATTCTGGGAGCAGGCACTG gave a remaining target (mRNA or protein) (fraction of control) of 0.79.

Turning to GGGAGATGATGGTGGTGGTG, the remaining target (mRNA or protein) (fraction of control) was at least 1.

Turning to GGGCCGGTGGGAGCCGGCGG, the remaining target (mRNA or protein) (fraction of control) stood at 0.37.

Sequence GCCACTGGATGTGGTTCTTG displayed a remaining target (mRNA or protein) (fraction of control) of 0.94.

On to GGCTGCCCATCCGGGACAAC, for which the remaining target (mRNA or protein) (fraction of control) amounted to 0.53.

Regarding CTGCAATGCTACGAAGGTCC, the remaining target (mRNA or protein) (fraction of control) is 0.26.

Take AGGAAGCGCTTGGTGGTCAG: the remaining target (mRNA or protein) (fraction of control) was found to be 0.72.

As for GAGGCCTCGATAAATAAATA, the remaining target (mRNA or protein) (fraction of control) came out at 0.94.

With AGGGACCCCTGCCCTTGCTC, the remaining target (mRNA or protein) (fraction of control) is 0.23.

Sequence TTGCTGATTCCCCAGGCTCA showed a remaining target (mRNA or protein) (fraction of control) of 0.36.

Sequence GTGTGGGTGTAGGCTGCATG gave a remaining target (mRNA or protein) (fraction of control) of 0.76.

Sequence AACCTTTAAGACAGAAGTGC registered a remaining target (mRNA or protein) (fraction of control) of 0.74.

CGCGGCGGAGATGATGACGA had a remaining target (mRNA or protein) (fraction of control) of at least 1.

The sequence CCACTCACCTCTCCCATCTC came in with a remaining target (mRNA or protein) (fraction of control) of 0.72.

ATGTCATAGATGCGCCGCTT returned a remaining target (mRNA or protein) (fraction of control) of 0.77.

ACACCACACAGACTCCTTCC registered a remaining target (mRNA or protein) (fraction of control) of 0.6.

Sequence TGAAAGTTCTCCGAAGAGTC came in with a remaining target (mRNA or protein) (fraction of control) of 0.56.

The sequence ACACACACATGCTCACACAC gave a remaining target (mRNA or protein) (fraction of control) of 0.56.

The sequence CGATCGGGCCTTGTTTGCTC gave a remaining target (mRNA or protein) (fraction of control) of 0.72.

AACCCCACACCCCTCCTCCC: the remaining target (mRNA or protein) (fraction of control) is 0.86.

The next data set addresses AKT3. The following applies: ASO.
In turn, AATCCACATCTTGAGGTT gave a remaining target (mRNA or protein) (fraction of control) of at least 1.

With GGAGTATCTACATGAAAT, the remaining target (mRNA or protein) (fraction of control) was at least 1.

On to AACTGTGTCTCATAATTT, for which the remaining target (mRNA or protein) (fraction of control) was at least 1.

In turn, TGTCTCATAATTTCTTTT displayed a remaining target (mRNA or protein) (fraction of control) of at least 1.

Regarding GGAAGTATCTTGGCCTCC, the remaining target (mRNA or protein) (fraction of control) was at least 1.

TCTGGTCCTCCACCAAGG: the remaining target (mRNA or protein) (fraction of control) is 0.26.

Sequence ATATATTCTCCCCTCTTC came in with a remaining target (mRNA or protein) (fraction of control) of at least 1.

CCATCTGTCTTCAAAAGG displayed a remaining target (mRNA or protein) (fraction of control) of at least 1.

Consider CTCTTCTAAACCCAACCT, for which the remaining target (mRNA or protein) (fraction of control) was 0.79.

As to TTCCCTTTCCTCTGGAGT, the remaining target (mRNA or protein) (fraction of control) came to 0.65.

Turning to AATGATTTTGCATCTGAA, the remaining target (mRNA or protein) (fraction of control) worked out at 0.94.

The sequence CCCACACATCATTTCATA came in with a remaining target (mRNA or protein) (fraction of control) of 0.25.

Sequence AAGTTTCTCATGGTCCTG registered a remaining target (mRNA or protein) (fraction of control) of 0.43.

The sequence TTGGACTACAATTCATTC registered a remaining target (mRNA or protein) (fraction of control) of 0.72.

For the sequence GAGGAAATTTAATGTCTT, the remaining target (mRNA or protein) (fraction of control) is at least 1.

CTCTTTATATCCTATGAA had a remaining target (mRNA or protein) (fraction of control) of at least 1.

In turn, ACTGAAAAGTTGTTGAGG came in with a remaining target (mRNA or protein) (fraction of control) of at least 1.

Take AGCTTCTGTCCATTCTTC: the remaining target (mRNA or protein) (fraction of control) is at least 1.

TCCCCTCTTCTGAACCCA showed a remaining target (mRNA or protein) (fraction of control) of 0.55.

Take AACCCAACCTTCTTTCAC: the remaining target (mRNA or protein) (fraction of control) was at least 1.

CTATGAATGAGCCATCTG displayed a remaining target (mRNA or protein) (fraction of control) of 0.99.

Sequence ATTTGGATCCTTTATCAA showed a remaining target (mRNA or protein) (fraction of control) of at least 1.

Regarding GTTGTAGAGGCATCCATC, the remaining target (mRNA or protein) (fraction of control) was at least 1.

GCCAGTTTACTCCAGAGA: the remaining target (mRNA or protein) (fraction of control) was found to be 0.44.

TCTTCCTCTCCTATATTA had a remaining target (mRNA or protein) (fraction of control) of at least 1.

Sequence CTTTTGCGTCATCTGGTC came in with a remaining target (mRNA or protein) (fraction of control) of at least 1.

Consider AAAGGTAACCTCCCACAC, for which the remaining target (mRNA or protein) (fraction of control) stood at 0.19.

On to TCTCATGGTCCTGGTTGT, for which the remaining target (mRNA or protein) (fraction of control) was 0.57.

In turn, TTTGCCACTGAAAAGTTG registered a remaining target (mRNA or protein) (fraction of control) of at least 1.

With TCATTAACTGGCATTTTG, the remaining target (mRNA or protein) (fraction of control) is at least 1.

(Values after the OligoGym collection.)
